According to patent publication US8921367B2 (Amgen Inc., priority 2012, dated 2014):

What was measured:
CA-125 = CA-125 in ovarian cancer patient of the Ph I trial; assay type: in vivo, human; details: platinum-sensitive ovarian cancer patient; 16 mg once daily, 8 mg cycles 4-15, 12 mg at cycle 16; end of cycle 16
Method: Disease progression by appearance of new bone lesions in CRPC in the dose expansion phase were evaluated with bone scans. Bone scans were performed at baseline, 4 weeks after cycle 1 day 1, 8 weeks after cycle 1 day 1, and every 8 weeks thereafter until disease progression. Efficacy in ovarian cancer and CRPC were evaluated based on the Rustin criteria (1996) and PCWG2 guidelines, respectively. CA-125 in ovarian cancer and PSA in CRPC were collected every 4 weeks.

AML = assay: Ph I AML study of oral AMG 900; assay type: in vivo, human
From the text: The data for both studies are as follows:

[1] = tested on: histone H3, a proximal substrate of aurora-B; assay: In vivo phosphorylation of histone H3
[2] = tested on: multiple tumor xenografts, including three MDR xenograft models resistant to paclitaxel or docetaxel; assay: Growth of tumor xenografts; assay type: in vivo
advanced solid tumors = assay: Ph I clinical dose escalation trial of oral AMG 900; tumor response by CT or MRI using RECIST criteria; assay type: in vivo, human
From the text: Some of the objectives for the study included (1) determination of the maximal tolerated dose (MTD) and if necessary, the MTD in conjunction with prophylactic amounts of granulocyte colony stimulating factor (GCSF); (2) to evaluate the PD effects of drug exposure on phospho-histone H3 (serine 10) proteins levels in tumor tissue; (3) to evaluate change in tumor volume by volumetric or MRI analysis; and (4) to evaluate tumor response assessed by CT or MRI using RECIST criteria. The clinical trial was conducted in accordance with the following design/protocol:
This is an open-label, sequential dose escalation study evaluating AMG 900 in subjects with advanced solid tumors. The study is being conducted in 2 parts: Part 1—Dose Escalation and Part 2—Dose Expansion. […] One cycle is defined as 14 days. Thus, 1 cycle=2 weeks (14 days) and DLT window=4 weeks (28 days).
In addition, treatment with proton pump inhibitors or H2 receptor antagonists was withheld at least 48 hours prior to the first dose of each treatment cycle until at least 1 hour after the fourth dose of a treatment cycle. Starting Dose:
In addition, treatment with proton pump inhibitors or H2 receptor antagonists were withheld at least 48 hours prior to the first dose of each treatment cycle until at least 1 hour after the fourth dose of a treatment cycle. One cycle was defined as 14 days. […] The investigator or sub-investigator performed a physical examination of each subject during clinic visits. A review of concomitant medications and an assessment of adverse events were performed at every visit.
Efficacy was assessed by standardized contrast-enhanced CT or MRI and evaluated according to RECIST criteria. RECIST 1.0 and RECIST 1.1 criteria is described in the Journal of National Cancer Institute, Vol. 92, No. 3:205-216, 2000 and European Journal of Cancer 45:228-247, 2009, respectively, both disclosures of which are hereby incorporated herein by reference in their entireties. CT or MRI scans with contrast were acquired at baseline, 4 weeks after cycle 1 day 1, 8 weeks after cycle 1 day 1, and every 8 weeks thereafter until disease progression. Scans were acquired with slice thickness of about 5 mm or less. Baseline imaging studies were performed within 2 weeks prior to study day 1, and where practicable, they were performed as close to the day of enrollment as possible.

[3] = Ph I dose escalation: MTD and DLT determination; assay type: in vivo, human; details: once daily oral, 4 days on/10 days off
From the text: The dose escalation part of the study was aimed at determining a maximum tolerated dose (MTD) and if necessary the MTD with prophylactic GCSF support (MTD-G), and evaluating the safety, tolerability, pharmacokinetics and pharmacodynamics of AMG 900 in subjects with advanced solid tumors.
A subsequent non-accelerated phase (SNAP) then commenced (≦50% dose escalations once the first grade 2 related toxicity occurred; ≦25% if a DLT occurs) in a standard 3+3 design at the dose level where DLT or possibly related grade 2 toxicity was observed. The percent of dose escalation depended upon toxicities observed in previous cohorts. Intra-subject dose escalation was not allowed. An MTD was determined without prophylactic GCSF support. If neutropenia (or neutropenia related toxicity) was dose limiting, then dose escalation proceeded with prophylactic GCSF support beginning at the dose level at which neutropenia (or neutropenia related toxicity) was dose limiting.

solid tumors = details: days 1 and 8 or days 1, 2 and 3 of 3-week cycle, cited from earlier work
[4] = tested on: advanced solid malignancies; details: cited from earlier work
[5] = tested on: advanced refractory solid tumors; details: cited from earlier work
advanced solid tumor = details: daily dosing 5 or 10 consecutive days in 3-week cycles; cited from earlier work

## Cc1csc(-c2nnc(Nc3ccc(Oc4ncccc4-c4ccnc(N)n4)cc3)c3ccccc23)c1 [AMG 900, N-(4-((3-(2-amino-4-pyrimidinyl)-2-pyridinyl)oxy)phenyl)-4-(4-methyl-2-thienyl)-1-phthalazinamine]
CA-125
  decrease in CA-125: 45%
AML; Patient No. 14, 80 mg once per day oral, 4 days on/10 days off
  Observed Response to AMG 900: Active
AML; Patient No. 15, 80 mg once per day oral, 4 days on/10 days off
  Observed Response to AMG 900: Active
AML; Patient No. 16, 30 mg once per day oral, 7 days on/7 days off
  Observed Response to AMG 900: Active
[1]
  phosphorylation of histone H3: blocks the phosphorylation
[2]
  growth of tumor xenografts: inhibits the growth
Advanced solid tumors; Patient No. 1, 1 mg once per day oral, 4 days on/10 days off, cholangiocarcinoma, at week 24
  Observed Response to AMG 900: SD at week 24
Advanced solid tumors; Patient No. 2, 8 mg once per day oral, 4 days on/10 days off, prostate, at week 8
  Observed Response to AMG 900: SD at week 8
Advanced solid tumors; Patient No. 3, 16 mg once per day oral, 4 days on/10 days off, ovarian, at week 40
  Observed Response to AMG 900: SD at week 40
Advanced solid tumors; Patient No. 4, 16 mg once per day oral, 4 days on/10 days off, breast, at week 4
  Observed Response to AMG 900: SD at week 4
Advanced solid tumors; Patient No. 5, 24 mg once per day oral, 4 days on/10 days off, colon, at week 8
  Observed Response to AMG 900: SD at week 8
Advanced solid tumors; Patient No. 6, 25 mg once per day oral, 4 days on/10 days off, rectal, at week 56
  Observed Response to AMG 900: PD at week 56
Advanced solid tumors; Patient No. 7, 24 mg once per day oral, 4 days on/10 days off, Medullary thyroid, at week 120
  Observed Response to AMG 900: SD at week 120
Advanced solid tumors; Patient No. 8, 30 mg + GCSF once per day oral, 4 days on/10 days off, endometrial, at Week 64
  Observed Response to AMG 900: PR at Week 64;
Advanced solid tumors; Patient No. 8, 30 mg + GCSF once per day oral, 4 days on/10 days off, endometrial, at week 72
  Observed Response to AMG 900: SD at week 72
Advanced solid tumors; Patient No. 9, 30 mg + GCSF once per day oral, 4 days on/10 days off, chondrosarcoma, at week 40
  Observed Response to AMG 900: SD at week 40
Advanced solid tumors; Patient No. 10, 40 mg + GCSF once per day oral, 4 days on/10 days off, colon, at week 32
  Observed Response to AMG 900: SD at week 32
Advanced solid tumors; Patient No. 11, 40 mg + GCSF once per day oral, 4 days on/10 days off, Non-small cell lung, at week 32
  Observed Response to AMG 900: SD at week 32
Advanced solid tumors; Patient No. 12, 50 mg + GCSF once per day oral, 4 days on/10 days off, thyroid, at week 32
  Observed Response to AMG 900: SD at week 32
Advanced solid tumors; Patient No. 13, 40 mg + GCSF once per day oral, 4 days on/10 days off, prostate, at week 8
  Observed Response to AMG 900: SD at week 8
Advanced solid tumors; once daily oral, 4 days on/10 days off
  lowest once daily dose at which anti cancer activity was observed: 8 mg
Advanced solid tumors; patient with stage IV solid endometrial tumor, 30 mg + GCSF once daily, 4 days on/10 days off, week 24, CT, RECIST 1.0
  decrease of long axis diameter of tumor versus base line diameter on day 1: approximately 50%
Advanced solid tumors; patient with stage IV-B solid ovarian tumor, 30 mg once daily, 4 days on/10 days off, two cycles, week 4, RECIST 1.1
  reduction of short axis diameter of tumor versus base line diameter on day 1: about 30%
Advanced solid tumors; platinum-sensitive ovarian cancer patient, 16 mg once daily, 8 mg cycles 4-15, 12 mg at cycle 16, 4-day on-10 day off, end of cycle 16
  decrease in SLD (sum of long axis diameters) on CT: 16%
Advanced solid tumors; same endometrial solid tumor, 30 mg once daily, week 16 after eight (8) cycles, CT, RECIST 1.1
  reduction of short axis diameter of tumor: up to 40%
[3]
  doses at which MTD's and DLT's were observed: greater than 8 mg

## Cc1cc(Nc2ncc(F)c(NC3C4C=CC(C4)C3C(N)=O)n2)ccc1N1CCN(C)CC1 (stereo not drawn) [AS703569]
Solid tumors
  impact on the patient's solid tumors: no positive impact(s)
Solid tumors; various dosages
  tolerability: tolerable

## CCN(CCCOc1ccc2c(Nc3cc(CC(=O)Nc4cccc(F)c4)n[nH]3)ncnc2c1)CCOP(=O)(O)O [AZD1152]
[4]; 2 hour IV infusion every 7 days
  dosage amount safely administered: ≤ 450 mg
[4]; patients with rapidly progressive diseases, within 450 mg dose
  disease response: significantly stabilize disease

## CO[C@@H](C(=O)N1Cc2n[nH]c(NC(=O)c3ccc(N4CCN(C)CC4)cc3)c2C1)c1ccccc1 [Danusertib]
[5]; over 24 hours in 14 day cycles without GCSF
  amount that can be safely administered: ≤ 500 mg/m^2
[5]; within dose of 500 mg/m^2, small cell lung carcinoma, prolonged disease stabilization in other solid tumors
  tumor response: prolonged objective response

## CC(=O)NCC(=O)N1[C@@H]2CC[C@H]1c1ccc(Nc3ncc(C(F)(F)F)c(NC4CCC4)n3)cc12 [PF-03814735]
Advanced solid tumor
  objective response on the tumors: NO objective response
